Test results as given in ChEMBL document CHEMBL4840323, “Discovery of an Orally Bioavailable Small-Molecule Inhibitor for the β-Catenin/B-Cell Lymphoma 9 Protein-Protein Interaction” (J Med Chem, 2021).
pIC50: −log10 of the molar value. Active and inactive are the calls of the source. The rule behind the calls is not given here.

Legend:
[1] = system: MDA-MB-231; assay: Induction of apoptosis in human MDA-MB-231 cells assessed as late apoptotic cells at 20 uM measured after 72 hrs by annexinV-FITC/propidium iodide staining based flow cytometry (reference value: 8.8 %); type: functional
[2] = system: MDA-MB-231; assay: Induction of apoptosis in human MDA-MB-231 cells assessed as late apoptotic cells at 40 uM measured after 72 hrs by annexinV-FITC/propidium iodide staining based flow cytometry (reference value: 8.8 %); type: functional
[3] = system: MDA-MB-468; assay: Induction of apoptosis in human MDA-MB-468 cells assessed as late apoptotic cells at 20 uM measured after 72 hrs by annexinV-FITC/propidium iodide staining based flow cytometry (reference value: 13.9 %); type: functional
[4] = system: MDA-MB-468; assay: Induction of apoptosis in human MDA-MB-468 cells assessed as early apoptotic cells at 40 uM measured after 72 hrs by annexinV-FITC/propidium iodide staining based flow cytometry (reference value: 28.9 %); type: functional
[5] = system: MDA-MB-468; assay: Induction of apoptosis in human MDA-MB-468 cells assessed as late apoptotic cells at 40 uM measured after 72 hrs by annexinV-FITC/propidium iodide staining based flow cytometry (reference value: 13.9 %); type: functional
[6] = Solubility of the compound in EtOH/saline (5/95) at 2 mg/ml; type: physicochemical; details: buffer
[7] = Half life in mouse liver microsomes at 1 uM measured up to 60 mins in presence of NADPH by LC-MS/SM analysis; type: ADME, Microsome; details: 1 h
[8] = Half life in C57BL/6 mouse at 1 mg/kg, iv measured after 5 mins by LC-MS/MS analysis; type: ADME, organism-based; details: in vivo
[9] = AUC in C57BL/6 mouse at 20 mg/kg, po via gavage measured up to 24 hrs by LC-MS/MS analysis; type: ADME, organism-based; parameters: route oral, dose 20 mg/kg, time <=24; details: in vivo
[10] = system: MDA-MB-231; assay: Antiinvasive activity against human MDA-MB-231 cells cultured as 3D-spheroids at 5 uM measured after 6 days by imaging analysis relative to control; type: functional; details: time 6 day
[11] = system: MDA-MB-231; assay: Antiinvasive activity against human MDA-MB-231 cells cultured as 3D-spheroids at 40 uM measured after 6 days by imaging analysis relative to control; type: functional; details: time 6 day
[12] = Toxicity in SCID-Beige mouse orthotopically xenografted with patient-derived 4013 cells at 90 mg/kg, po via gavage for 5 days; type: organism-based; details: in vivo, 120 h, time 5 day
[13] = system: SW480; assay: Inhibition of Wnt/beta-catenin transactivation signalling in human SW480 cells assessed as relative activity at 6.25 uM measured after 24 hrs by TOPFlash reporter gene assay relative to control; type: cell-based; parameters: scale not given: the % may be the effect or the level left
[14] = system: MDA-MB-468; assay: Inhibition of Wnt/beta-catenin transactivation signalling in Wnt3a stimulated human MDA-MB-468 cells assessed as relative activity at 12.5 uM measured after 24 hrs by TOPFlash reporter gene assay relative to control; type: cell-based; parameters: scale not given: the % may be the effect or the level left
[15] = system: MDA-MB-468; assay: Inhibition of Wnt/beta-catenin transactivation signalling in Wnt3a stimulated human MDA-MB-468 cells assessed as relative activity at 25 uM measured after 24 hrs by TOPFlash reporter gene assay relative to control; type: cell-based; parameters: scale not given: the % may be the effect or the level left
[16] = system: SW480; assay: Downregulation of HPRT mRNA expression in human SW480 cells at 10 to 40 uM measured after 24 hrs by qRT-PCR analysis; type: functional, cell-based; details: dose 10-40 µM
[17] = species on record: Mus musculus; details: dose 90.0 mg/kg, time 5.0 day
[18] = species on record: Mus musculus; details: dose 90.0 mg/kg, time 5.0 day; remark: listed apart in the source
[19] = species on record: Mus musculus; details: dose 90.0 mg/kg, time 5.0 day; remark: listed apart in the source
[20] = species on record: Mus musculus; details: dose 90.0 mg/kg, time 5.0 day; remark: listed apart in the source
[21] = system: MDA-MB-231; assay: cells; details: Homo sapiens, MDA-MB-231, 72 h
Description: Antiproliferative activity against human MDA-MB-231 cells assessed as cell growth inhibition measured after 72 hrs by MTS assay

`CC(C)(Oc1cccc(N2CCC[C@@H](C(=O)N(Cc3ccc(-c4cn[nH]c4)cc3)C3CC3)C2)c1)C(=O)N1CCNCC1.Cl` showed an Activity [1] of 23%, an Activity [2] of 18.9% and an Activity [3] of 24.6%. The Activity [4] was 53.5%, the Activity [5] was 33.4% and the solubility [6] was “Soluble”. The t1/2 [7] was 9.6 min, the t1/2 [8] was 3.51 h and the AUC [9] was 11.71 µM·h. The Activity [10] was 76.3%, the Activity [11] was 10.9% and the Activity [12] was “Toxic”. The Activity [13] was 97%, the Activity [14] was 96% and the Activity [15] was 89%. For the same compound, the Activity [16] was “inactive”, the inhibition [17] was “Active” and the inhibition [18] was “Active”. For the same compound, the inhibition [19] was “Active”, the inhibition [20] was “Active” and the pIC50 [21] was 4.55.
